Measured values published in patent US5051417A, “Indolythiadiazines for treating heart failure” (Les Laboratoires Beecham S.A., priority 1988, dated 1991).

Key:
canine cardiac PDE, CAM = assay: Canine cardiac PDE inhibition, CAM; type: biochemical; conditions: n in table
[1] = test system: canine cardiac myofibrillar Ca++-dependent Mg++-ATPase; assay: Measurement of myofibrillar Ca++-dependent Mg++-ATPase activity on canine cardiac myofibrils; type: biochemical; conditions: 30 μM, pH 7.0, 21° C.; for max (percent change of maximal ATPase activity): pCa=5.47
Method: 1. Measurement of myofibrillar Ca++-dependent Mq++-ATPase activity The effect on myofibrillar Ca++sensitivity and on maximal activity of myofibrillar Ca++-dependent Mg++-ATPase was determined on canine cardiac myofibrils. (a) Contractile protein preparation Cardiac myofibrils free of membrane contaminants were prepared from left ventricular tissue of dog hearts using a modification of the method described by SOLARO et al, Biochem. Biophys. Acta, 245, 259-262, (1971). Before centrifugation, the heart homogenate was filtered through gauze. After Triton X-100 treatments, the myofibrillar fraction was washed once by resuspension and centrifugation in 10 volumes of 1 mM EGTA, […], 30 mM imidazole, 2 mM MgCl2, pH 7.0. The pellet was then washed three times in 10 volumes of the same buffer without EGTA. Before the last centrifugation, the suspension of myofibrils was filtered through a stainless steel sieve with 0.25 mm meshes. Myofibrils were kept in pellet overnight. Before use, the pellet was suspended in a small amount of buffer, the protein concentration was determined by the method of BRADFORD M., Anal. Biochem., 1976, 72, 248 and adjusted in order to have a concentration between 6 and 7 mg/ml. (b) Myofibrillar ATPase activity Ca++-dependent myfibrillar ATPase activity was determined at 21° C., pH 7.0, by measuring the rate of release of inorganic phosphate. All assays were performed within 24hrs. of final purification, using the method described by SOLARO and […]., 51. 290-4,(1982). Reaction mixtures (4 ml) containing 0.6-0.7 mg/ml myofibrillar protein, 80mM KCl, 20 mM imidazole, 3 mM MgCl2, 1 mM EGTA, the desired amount of CaCl2, and the indicated concentration of drug or appropriate vehicle were preincubated for 6 min. prior to assay. The amount of CaCl2 was varied between 0 and 0.9 mM and the pCa (-log free Ca++) computed using 2.514×10^6 M^-1 as the apparent affinity of Ca++for EGTA at pH 7.0. Reactions were initiated by the addition of Na2 ATP to final concentration of 2 mM. After an incubation period of 12 min., reactions were quenched by the addition of an equal volume of ice-cold 10% trichloroacetic acid. The protein was pelleted by centrifugation (2000 g, 15 min.) and Pi was assayed in the supernatant fraction using a modification of the method described by LANZETTA et al, Anal. Biochem., 100, 95-97, (1979). The following solutions were prepared: (1) 3.7% ammonium heptamolybdate in 0.12 N H2 SO4 (2) 0.074% malachite green oxalate in 1% polyvinylic alcohol. The colour reagent was prepared by mixing an equal volume of solution (1) and (2) 15 min. before the assay. For the assay, 1,700 μl of 1% H2 SO4 and 1 ml of colour reagent were added to 100 μl of sample. Colour development occurred at room temperature for 30 min. and was quenched by the addition of 200 μl of 1M tri-potassium citrate. The absorbance was measured at 620 millimicrons. The effect of each compound, tested at the indicated concentration, on the relation between pCa and percent activation was determined taking 100% for the maximum ATPase activity obrained with vehicle alone. The effect on Ca++sensitivity was quantified by measuring the shift of the pCa giving 50% of the maximal control ATPase activity. The effect on maximal ATPase activity was expressed as the percent change of ATPase activity for pCa=5.47. Mean effects on myofibrillar ATPase activity were obtained from 1 to 5 preparations, (compounds tested at 2×10^-4 M).

canine cardiac PDE, CGI = molecular target: T1, canine cardiac PDE, CGI (Canis lupus familiaris, UniProt A0A8I3NYE0); assay: Canine cardiac PDE inhibition, CGI; type: biochemical; conditions: n in table
T1 construct: CANINE CARDIAC PDE; from tissue; host or cells: dog heart
T1 sequence (A0A8I3NYE0 1-1135): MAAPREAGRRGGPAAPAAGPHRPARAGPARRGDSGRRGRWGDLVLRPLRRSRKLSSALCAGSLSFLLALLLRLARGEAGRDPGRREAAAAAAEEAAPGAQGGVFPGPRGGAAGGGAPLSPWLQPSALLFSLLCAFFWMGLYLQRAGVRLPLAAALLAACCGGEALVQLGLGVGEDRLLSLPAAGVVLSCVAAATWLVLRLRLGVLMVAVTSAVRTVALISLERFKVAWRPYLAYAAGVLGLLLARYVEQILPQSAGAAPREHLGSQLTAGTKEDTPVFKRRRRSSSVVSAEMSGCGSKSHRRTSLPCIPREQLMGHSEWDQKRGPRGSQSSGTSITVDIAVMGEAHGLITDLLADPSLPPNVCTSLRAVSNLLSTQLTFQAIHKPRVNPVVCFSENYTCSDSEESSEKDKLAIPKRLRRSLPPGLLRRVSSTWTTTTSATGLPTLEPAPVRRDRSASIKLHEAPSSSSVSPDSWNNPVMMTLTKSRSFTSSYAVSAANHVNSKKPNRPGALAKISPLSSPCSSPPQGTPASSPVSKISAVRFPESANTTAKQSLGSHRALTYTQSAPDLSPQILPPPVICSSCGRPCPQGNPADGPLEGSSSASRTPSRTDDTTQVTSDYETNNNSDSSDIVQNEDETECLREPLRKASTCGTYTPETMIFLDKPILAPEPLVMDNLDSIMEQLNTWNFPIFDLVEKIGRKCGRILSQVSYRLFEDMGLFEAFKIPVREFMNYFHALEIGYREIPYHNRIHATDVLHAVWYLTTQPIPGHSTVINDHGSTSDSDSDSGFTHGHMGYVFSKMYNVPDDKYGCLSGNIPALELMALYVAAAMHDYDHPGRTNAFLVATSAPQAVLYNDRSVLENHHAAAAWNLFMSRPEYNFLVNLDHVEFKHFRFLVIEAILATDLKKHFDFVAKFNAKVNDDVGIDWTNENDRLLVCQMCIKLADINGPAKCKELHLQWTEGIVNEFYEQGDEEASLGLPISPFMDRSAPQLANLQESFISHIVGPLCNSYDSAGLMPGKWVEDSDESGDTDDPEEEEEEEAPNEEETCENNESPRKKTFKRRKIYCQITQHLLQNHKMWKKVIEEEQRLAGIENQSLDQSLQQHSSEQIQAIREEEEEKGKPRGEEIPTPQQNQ

anaesthetised dog = assay: Cardiotonic activity in the dog (haemodynamics); type: in vivo, dog (male Beagle); conditions: i.v.

Structure (SMILES)	IC50 (canine cardiac PDE, CAM) [nM]	max (percent change of maximal ATPase activity) [1] [%]	pCa (shift of the pCa giving 50% of the maximal control ATPase activity; Ca++ sensitivity) [1]	IC50 (canine cardiac PDE, CGI) [nM]	further results
CC1SC(=O)NN=C1c1ccc2c(c1)C(=Cc1ccccc1)C(=O)N2 (centres unmarked) [Example 10, 1,3-Dihydro-5-(3,6-dihydro-6-methyl-2-oxo-2H-1,3,4-thiadiazin-5-yl)-3-phenylmethylene-2H-indol-2-one]	20000	-13 ± 3	+0.43 ± 0.07	350	–
CC1SC(=O)NN=C1c1ccc2c(c1)C(=NNc1ccccc1C(F)(F)F)C(=O)N2 (centres unmarked) [Example 31, 5-(3,6-Dihydro-6-methyl-2-oxo-2H-1,3,4-thiadiazin-5-yl) -1H-indole-2,3-dione 3-[(2-trifluoromethyl)phenylhydrazone]]	–	26 ± 7	+0.43 ± 0.04	–	AoBF (anaesthetised dog; 0.01 mg/kg): +11 ± 5%; AoBP (anaesthetised dog; 0.01 mg/kg): -8 ± 1%; H.R. (anaesthetised dog; 0.01 mg/kg): +8 ± 2%; dP/dt Max (anaesthetised dog; 0.01 mg/kg): +9 ± 3%; AoBF (anaesthetised dog; 0.03 mg/kg): +19 ± 8%; AoBP (anaesthetised dog; 0.03 mg/kg): -15 ± 1%; H.R. (anaesthetised dog; 0.03 mg/kg): +30 ± 4%; dP/dt Max (anaesthetised dog; 0.03 mg/kg): +44 ± 13%; AoBF (anaesthetised dog; 0.1 mg/kg): +13 ± 6%; AoBP (anaesthetised dog; 0.1 mg/kg): -23 ± 2%; H.R. (anaesthetised dog; 0.1 mg/kg): +39 ± 6%; dP/dt Max (anaesthetised dog; 0.1 mg/kg): +93 ± 13%
CC1SC(=O)NN=C1c1ccc2c(c1)C(=NN)C(=O)N2 (centres unmarked) [Example 7, 5-(3,6-Dihydro-6-methyl-2-oxo-2H-1,3,4-thiadiazin-5-yl)-1H -indole-2,3-dione 3-hydrazone]	42000	-3 ± 5	+0.17 ± 0.02	2300	–
CC1SC(=O)NN=C1c1ccc2c(c1)C(=Nc1ccc(N(C)C)cc1)C(=O)N2 (centres unmarked) [Example 14, 1,3-Dihydro-5-(3,6-dihydro-6-methyl-2-oxo-2H-1,3,4-thiadiazin-5-yl)-3-(4-dimethylaminophenylimino)-2H -indol-2-one]	5600	0 ± 3	+0.12 ± 0.02	620	–
CC1SC(=O)NN=C1c1ccc2c(c1)C(=NOc1ccccc1)C(=O)N2 (centres unmarked) [Example 11, 1,3,-Dihydro-5-(3,6-dihydro-6-methyl-2-oxo-2H-1,3,4-thiadiazin-5-yl)-3-phenoxyimino-2H-indol-2-one]	> 300000	8 ± 2	+0.36 ± 0.05	680	–
CC1SC(=O)NN=C1c1ccc2c(c1)C(=Nc1ccccc1)C(=O)N2 (centres unmarked) [Example 6, 1,3-6-Dihydro-5-(3,6-dihydro-6-methyl-2-oxo-2H-1,3,4-thiadiazin-5-yl)-3-phenylimino-2H-indol-2-one]	> 300000	-2 ± 6	+0.38 ± 0.06	1200	–
CC1SC(=O)NN=C1c1ccc2c(c1)C(=NNC1=NCCN1)C(=O)N2 (centres unmarked) [Example 13]	–	2 ± 2	+0.07 ± 0.02	14000	–
CC1SC(=O)NN=C1c1ccc2c(c1)C(=NNC(=N)N)C(=O)N2 (centres unmarked) [Example 12, 5-(3,6-Dihydro-6-methyl-2-oxo-2H-1,3,4-thiadiazin-5-yl) -1H-indole-2,3-dione 3-[2-(aminomethanimino)hydrazone]]	–	-1 ± 2	+0.08 ± 0.02	1800	–
CC1SC(=O)NN=C1c1ccc2c(c1)C(=NNC(N)=S)C(=O)N2 (centres unmarked) [Example 4, 2-[2,3-Dihydro-5-(3,6-dihydro-6-methyl-2-oxo-2H-1,3,4-thiadiazin-5-yl)-2-oxo-1H-indol-3-ylidene]-hydrazine carbothioamide]	> 300000	–	–	440	–
CC1SC(=O)NN=C1c1ccc2c(c1)C(=Cc1ccncc1)C(=O)N2 (centres unmarked) [Example 18]	4000	-28 ± 4	+0.04 ± 0.08	1900	–
CC1SC(=O)NN=C1c1ccc2c(c1)C(=C(C#N)C#N)C(=O)N2 (centres unmarked) [Example 9, [5-(3,6-Dihydro-6-methyl-2-oxo-2H-1,3,4-thiadiazin-5-yl) -1,2-dihydro-2-oxo-3H-indol-3-ylidene]-propane-dinitrile]	31000	-20 ± 3	+0.05 ± 0.07	2100	–
CC1SC(=O)NN=C1c1ccc2c(c1)C(=NNc1ccc(Cl)c(Cl)c1)C(=O)N2 (centres unmarked) [Example 27, 5-(3,6-Dihydro-6-methyl-2-oxo-2H-1,3,4-thiadiazin-5-yl) -1H-indole-2,3-dione 3-(3,4-dichloroohenyl)hydrazone]	–	-1 ± 0	+0.05 ± 0.03	–	–
CC1SC(=O)NN=C1c1ccc2c(c1)C(=NNc1ccc(F)cc1)C(=O)N2 (centres unmarked) [Example 30]	–	28 ± 6	+1.01 ± 0.07	–	–
COc1ccc(NN=C2C(=O)Nc3ccc(C4=NNC(=O)SC4C)cc32)cc1 (centres unmarked) [Example 28, 5-(3,6-Dihydro-6-methyl-2-oxo-2H-1,3,4-thiadiazin-5-yl) -1H-indole-2,3-dione 3-[(4-methoxy)phenylhydrazone]]	–	20 ± 5	+0.94 ± 0.05	–	–
